Data reported in ChEMBL document CHEMBL1201862, “PubChem BioAssay data set” (2004).
Values belong to the compound of their own block, whether it stands above or below them. Activity calls are given as the source filed them.

Columns and labels:
[1] = molecular target: Delta-type opioid receptor (Homo sapiens, UniProt P41143); experiment: SAR Analysis of Antagonists of the DOR Receptor using an Image-Based Assay - Set 3. [Related pubchem assays (depositor defined):AID1777, AID1785]; format: functional;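 further: U2OS cells expressing DOR1 and beta-arrestin GFP stimulated with 100 nM SNC80; imaging of GFP-tagged beta-arrestin moving into spots after receptor activation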
Chain of Delta-type opioid receptor (P41143 whole entry): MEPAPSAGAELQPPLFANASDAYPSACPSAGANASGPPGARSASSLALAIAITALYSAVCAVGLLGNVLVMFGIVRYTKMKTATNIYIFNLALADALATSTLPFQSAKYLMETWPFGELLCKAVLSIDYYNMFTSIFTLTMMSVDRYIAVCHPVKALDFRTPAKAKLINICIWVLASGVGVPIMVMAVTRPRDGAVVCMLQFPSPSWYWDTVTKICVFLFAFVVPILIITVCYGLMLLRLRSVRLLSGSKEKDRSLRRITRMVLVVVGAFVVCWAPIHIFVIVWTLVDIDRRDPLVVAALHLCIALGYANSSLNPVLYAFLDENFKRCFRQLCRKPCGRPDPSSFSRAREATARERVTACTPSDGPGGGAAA

Mu-type opioid receptor = Mu-type opioid receptor (Homo sapiens, UniProt P35372); experiment: SAR Analysis of Antagonists of the MOR Receptor using an Image-Based Assay - Set 3. [Related pubchem assays (depositor defined):AID1777, AID1785, AID1786, AID1966, AID2133, AID2136, AID2284, AID2285, AID2420]; format: functional
Chain of Mu-type opioid receptor (P35372 whole entry): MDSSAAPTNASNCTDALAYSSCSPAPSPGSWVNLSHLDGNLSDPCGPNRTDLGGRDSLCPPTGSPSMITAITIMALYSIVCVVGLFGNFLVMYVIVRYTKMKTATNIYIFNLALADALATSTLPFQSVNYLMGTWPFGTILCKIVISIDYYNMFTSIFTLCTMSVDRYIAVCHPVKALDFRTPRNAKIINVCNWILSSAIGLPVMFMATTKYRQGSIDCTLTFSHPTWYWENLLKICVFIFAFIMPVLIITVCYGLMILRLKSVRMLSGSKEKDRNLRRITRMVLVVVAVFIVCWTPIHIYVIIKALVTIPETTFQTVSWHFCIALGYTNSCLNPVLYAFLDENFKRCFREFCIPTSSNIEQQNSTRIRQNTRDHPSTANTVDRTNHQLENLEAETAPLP

[2] = molecular target: T1, Kappa-type opioid receptor (Homo sapiens, UniProt P41145); experiment: SAR analysis of small molecule antagonists of the kappa opioid receptor via a luminescent beta-arrestin assay - Set 6. [Related pubchem assays (depositor defined):AID1777, AID1778, AID1785, AID1786, AID1966, AID2133, AID2136, AID2285]; format: functional
T1 sequence (P41145 whole entry): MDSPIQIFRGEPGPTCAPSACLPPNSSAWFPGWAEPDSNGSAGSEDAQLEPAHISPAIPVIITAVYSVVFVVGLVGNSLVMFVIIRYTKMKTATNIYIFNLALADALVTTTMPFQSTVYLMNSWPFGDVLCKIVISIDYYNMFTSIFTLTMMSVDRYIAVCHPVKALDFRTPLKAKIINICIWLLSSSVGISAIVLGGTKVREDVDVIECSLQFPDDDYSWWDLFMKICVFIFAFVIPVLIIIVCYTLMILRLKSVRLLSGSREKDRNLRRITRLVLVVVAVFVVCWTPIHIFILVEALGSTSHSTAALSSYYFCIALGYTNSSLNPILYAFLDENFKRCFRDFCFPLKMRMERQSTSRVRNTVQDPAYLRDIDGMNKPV

[3] = molecular target: T1, Kappa-type opioid receptor; experiment: SAR analysis of small molecule antagonists of the kappa opioid receptor via a luminescent beta-arrestin assay - Set 4. [Related pubchem assays (depositor defined):AID1777, AID1778, AID1785, AID1786, AID1966, AID2133, AID2136, AID2285]; format: functional
[4] = molecular target: T1, Kappa-type opioid receptor; experiment: SAR analysis of Antagonists of the Kappa Opioid Receptor (KOR) using an Image-Based Assay - Set 4. [Related pubchem assays (depositor defined):AID1777, AID1785]; format: functional
Hexokinase = Hexokinase (Trypanosoma brucei, UniProt Q38C41); experiment: Confirmation assay for inhibitors of Trypanosoma brucei hexokinase 1-Analogue-first series. [Related pubchem assays (depositor defined):AID1430, AID1632, AID2516, AID2560, AID2579, AID2600, AID449725, AID492951]; format: functional
Chain of Hexokinase (Q38C41 whole entry, the tested form may be a part): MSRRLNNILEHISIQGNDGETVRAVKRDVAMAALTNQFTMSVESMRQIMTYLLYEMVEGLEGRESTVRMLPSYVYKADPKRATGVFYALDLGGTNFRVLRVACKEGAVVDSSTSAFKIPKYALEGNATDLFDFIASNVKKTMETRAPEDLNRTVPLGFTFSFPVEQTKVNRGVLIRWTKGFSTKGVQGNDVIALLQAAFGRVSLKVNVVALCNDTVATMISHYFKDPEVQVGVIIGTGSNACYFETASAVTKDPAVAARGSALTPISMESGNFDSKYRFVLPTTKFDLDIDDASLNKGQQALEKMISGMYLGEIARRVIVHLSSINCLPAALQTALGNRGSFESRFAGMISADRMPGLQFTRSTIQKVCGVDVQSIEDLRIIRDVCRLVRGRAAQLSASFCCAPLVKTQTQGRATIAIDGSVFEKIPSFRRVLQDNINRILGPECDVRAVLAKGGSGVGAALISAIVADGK

Perilipin-1/ABHD5 = Perilipin-1/ABHD5 (Homo sapiens, UniProt O60240+Q8WTS1); experiment: Luminescence-based biochemical high throughput dose response assay for inhibitors of the interaction of the lipase co-activator protein, abhydrolase domain containing 5 (ABHD5) with perilipin-1 (PLIN1) (2K validation set). [Related pubchem assays (depositor defined):AID493027, AID493057]
Chain of Perilipin-1/ABHD5 (Q8WTS1 whole entry, the tested form may be a part): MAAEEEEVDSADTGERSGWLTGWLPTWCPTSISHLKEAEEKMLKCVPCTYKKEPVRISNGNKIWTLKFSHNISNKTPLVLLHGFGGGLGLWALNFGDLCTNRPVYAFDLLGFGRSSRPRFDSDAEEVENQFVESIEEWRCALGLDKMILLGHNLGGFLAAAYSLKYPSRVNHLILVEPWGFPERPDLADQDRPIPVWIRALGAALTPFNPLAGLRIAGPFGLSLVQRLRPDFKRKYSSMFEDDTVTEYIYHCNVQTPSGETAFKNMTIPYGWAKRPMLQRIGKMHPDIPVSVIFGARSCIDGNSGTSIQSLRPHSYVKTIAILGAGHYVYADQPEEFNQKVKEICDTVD
Chain of Perilipin-1/ABHD5 (O60240 whole entry, the tested form may be a part): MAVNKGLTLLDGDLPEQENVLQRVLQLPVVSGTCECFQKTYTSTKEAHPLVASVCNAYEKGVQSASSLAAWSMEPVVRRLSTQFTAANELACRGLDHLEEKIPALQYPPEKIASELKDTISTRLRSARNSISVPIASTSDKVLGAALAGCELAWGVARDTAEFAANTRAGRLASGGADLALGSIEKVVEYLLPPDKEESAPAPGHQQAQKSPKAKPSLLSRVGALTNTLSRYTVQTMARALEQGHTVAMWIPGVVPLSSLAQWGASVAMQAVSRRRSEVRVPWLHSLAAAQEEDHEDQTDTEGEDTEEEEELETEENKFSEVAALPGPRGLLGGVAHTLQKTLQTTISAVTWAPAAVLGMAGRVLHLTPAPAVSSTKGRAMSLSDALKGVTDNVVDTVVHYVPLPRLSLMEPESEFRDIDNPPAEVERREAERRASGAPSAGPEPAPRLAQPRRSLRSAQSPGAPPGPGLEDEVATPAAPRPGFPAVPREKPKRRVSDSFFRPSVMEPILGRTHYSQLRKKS

[5] = molecular target: 1-acylglycerol-3-phosphate O-acyltransferase ABHD5/Perilipin-5 (Homo sapiens, UniProt Q00G26+Q8WTS1); experiment: Luminescence-based biochemical high throughput dose response assay for inhibitors of the interaction of the lipase co-activator protein, abhydrolase domain containing 5 (ABHD5) with perilipin-5 (MLDP; PLIN5) (2K validation set). [Related pubchem assays (depositor defined):AID493035, AID493241]
Chain of 1-acylglycerol-3-phosphate O-acyltransferase ABHD5/Perilipin-5 (Q00G26 whole entry, the tested form may be a part): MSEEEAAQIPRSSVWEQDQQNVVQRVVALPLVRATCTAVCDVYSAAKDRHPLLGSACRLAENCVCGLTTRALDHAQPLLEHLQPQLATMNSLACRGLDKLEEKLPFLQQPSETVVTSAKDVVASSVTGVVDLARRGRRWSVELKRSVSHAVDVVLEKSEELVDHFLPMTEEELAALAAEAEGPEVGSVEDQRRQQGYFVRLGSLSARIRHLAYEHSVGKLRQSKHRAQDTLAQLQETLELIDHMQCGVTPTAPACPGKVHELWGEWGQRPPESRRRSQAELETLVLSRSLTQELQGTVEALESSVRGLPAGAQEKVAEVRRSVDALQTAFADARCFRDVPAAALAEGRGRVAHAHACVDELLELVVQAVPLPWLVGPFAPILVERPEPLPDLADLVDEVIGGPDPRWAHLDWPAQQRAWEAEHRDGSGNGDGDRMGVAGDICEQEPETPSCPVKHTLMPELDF
Chain of 1-acylglycerol-3-phosphate O-acyltransferase ABHD5/Perilipin-5 (Q8WTS1 whole entry, the tested form may be a part): as the sequence (Q8WTS1 whole entry, the tested form may be a part) above

[6] = molecular target: DNA damage-inducible transcript 3 protein (Mus musculus, UniProt P35639); format: functional, Cricetulus griseus
Chain of DNA damage-inducible transcript 3 protein (P35639 whole entry): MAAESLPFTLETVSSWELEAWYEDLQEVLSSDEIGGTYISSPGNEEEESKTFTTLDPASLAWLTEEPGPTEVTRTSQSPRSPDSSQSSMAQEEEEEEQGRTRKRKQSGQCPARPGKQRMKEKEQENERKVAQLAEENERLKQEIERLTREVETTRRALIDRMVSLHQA

[7] = Luminescence Cell-Based Dose Retest to Confirm Inhibitors of Cancer Stem Cells. [Related pubchem assays (depositor defined):AID2717, AID2721]; format: functional; details: Homo sapiens
X-box-binding protein 1 = X-box-binding protein 1 (Homo sapiens, UniProt P17861); format: functional, Cricetulus griseus;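 further: confirmatory dose-response counter-screen serving a CHOP assay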
Chain of X-box-binding protein 1 (P17861 whole entry): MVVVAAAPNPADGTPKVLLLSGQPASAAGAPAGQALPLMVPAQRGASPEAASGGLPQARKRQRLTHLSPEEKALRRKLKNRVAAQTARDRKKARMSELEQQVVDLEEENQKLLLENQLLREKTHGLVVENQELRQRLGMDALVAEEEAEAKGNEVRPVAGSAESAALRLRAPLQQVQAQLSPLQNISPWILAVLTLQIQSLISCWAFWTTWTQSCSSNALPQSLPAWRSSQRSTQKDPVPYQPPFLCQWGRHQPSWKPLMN

[8] = molecular target: Dual specificity protein phosphatase 3 (Homo sapiens, UniProt P51452); experiment: SAR VHR1 Fluorescent Assay for In Vitro dose response studies Set 2. [Related pubchem assays (depositor defined):AID1654, AID1661, AID1878]; format: functional
Chain of Dual specificity protein phosphatase 3 (P51452 whole entry): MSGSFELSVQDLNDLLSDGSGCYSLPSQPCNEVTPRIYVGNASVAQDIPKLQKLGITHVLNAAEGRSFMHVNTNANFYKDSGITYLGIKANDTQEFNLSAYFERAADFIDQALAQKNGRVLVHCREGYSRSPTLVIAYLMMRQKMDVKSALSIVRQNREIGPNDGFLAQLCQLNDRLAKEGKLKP

[9] = molecular target: T2, Tyrosine-protein phosphatase non-receptor type 7 (Homo sapiens, UniProt P35236); experiment: SAR analysis of chemical inhibitors of HePTP using a Fluorescent assay - Set 2. [Related pubchem assays (depositor defined):AID1059, AID1077, AID1661, AID2085, AID521]; format: functional
T2 sequence (P35236 whole entry): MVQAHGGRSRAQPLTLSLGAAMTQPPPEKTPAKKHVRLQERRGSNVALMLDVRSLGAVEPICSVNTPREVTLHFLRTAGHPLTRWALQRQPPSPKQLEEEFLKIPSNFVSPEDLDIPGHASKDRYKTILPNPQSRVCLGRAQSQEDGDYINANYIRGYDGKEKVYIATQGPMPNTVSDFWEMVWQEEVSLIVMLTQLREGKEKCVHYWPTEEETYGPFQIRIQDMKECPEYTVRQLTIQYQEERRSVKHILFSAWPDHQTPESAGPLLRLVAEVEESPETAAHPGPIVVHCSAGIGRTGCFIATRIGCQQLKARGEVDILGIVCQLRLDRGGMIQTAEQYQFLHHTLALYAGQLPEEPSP
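Wherever AC50 is given: cells exposed to compound for roughly 70 hours or longer before luminescence read.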

- IC50 [1]: > 32 µM (inactive)
- IC50 (Mu-type opioid receptor): > 32 µM (inactive)
- IC50 [2]: 4.73 µM (active)
- IC50 [3]: 3.01 µM (active)
- IC50 [4]: 0.168 µM (active)
SMILES: CCCCc1ccc(S(=O)(=O)NCc2ccc(C(=O)NCCN(Cc3ccccc3)C(C)C)cc2)cc1

SMILES: O=c1c(Br)csn1-c1ccc(Br)cc1
- IC50 (Hexokinase): 11.1 µM (active)

- IC50 (Perilipin-1/ABHD5): 6.79 µM (active)
- IC50 [5]: 9.96 µM (active)
SMILES: COc1cccc(/C=C/C(=O)c2c(O)cc(C)oc2=O)c1O

SMILES: Oc1ccccc1-n1c(-c2ccccc2)ccc1-c1ccccc1
- Absolute IC50 (CHOP) [6]: 10 µM
- AC50 [7]: 4.28 µM (active)
- Absolute IC50 (XBP1) (X-box-binding protein 1): 10 µM

SMILES: COc1ccc(OC)c(C(=S)NCc2cccc(F)c2)c1
- IC50 [8]: 65.2 µM (active)
- IC50 [9]: 64 µM (active)
